Test results published in US9096560B2, “5-heterocyclylalkyl-3-hydroxy-2-phenylcyclopent-2-enones as herbicides” (Syngenta Limited, priority 2008, dated 2015).

Columns and labels:
Format in all cases: in vivo
[1] = system: Lolium perenne (LOLPE); assay: Example B post-emergence herbicidal test, LOLPE; conditions: Lolium perenne, 312 h, rate 250 g/ha, evaluated after 13 days, scale 0-100, read-out: Post-emergence activity LOLPE (100=total damage to plant; 0=no damage to plant)
Description: (§1) Seeds of a variety of test species were sown in standard soil in pots. After cultivation for one day (pre-emergence) or after 8 days cultivation (post-emergence) under controlled conditions in a glasshouse (at 24/16° C., day/night; 14 hours light; 65% humidity), the plants were sprayed with an aqueous spray solution derived from the formulation of the technical active ingredient in acetone/water (50:50) solution containing 0.5% Tween 20 (polyoxyethelyene sorbitan monolaurate, CAS RN 9005-64-5). The test plants were then grown in a glasshouse under controlled conditions in a glasshouse (at 24/16° C., day/night; 14 hours light; 65% humidity) and watered twice daily. After 13 days for pre and post-emergence, the test was evaluated (100=total damage to plant; 0=no damage to plant). Lolium perenne (LOLPE), Alopecurus myosuroides (ALOMY), Echinochloa crus-galli (ECHCG), Avena fatua (AVEFA) Post-Emergence Activity

[2] = system: Alopecurus myosuroides (ALOMY); assay: Example B post-emergence herbicidal test, ALOMY; conditions: Alopecurus myosuroides, 312 h, rate 250 g/ha, evaluated after 13 days, scale 0-100, read-out: Post-emergence activity ALOMY (100=total damage to plant; 0=no damage to plant)
Description: as §1

[3] = system: Echinochloa crus-galli (ECHCG); assay: Example B post-emergence herbicidal test, ECHCG; conditions: Echinochloa crus-galli, 312 h, rate 250 g/ha, evaluated after 13 days, scale 0-100, read-out: Post-emergence activity ECHCG (100=total damage to plant; 0=no damage to plant)
Description: as §1

[4] = system: Avena fatua (AVEFA); assay: Example B post-emergence herbicidal test, AVEFA; conditions: Avena fatua, 312 h, rate 250 g/ha, evaluated after 13 days, scale 0-100, read-out: Post-emergence activity AVEFA (100=total damage to plant; 0=no damage to plant)
Description: as §1

[5] = system: Lolium perenne (LOLPE); assay: Example B pre-emergence herbicidal test, LOLPE; conditions: Lolium perenne, 312 h, rate 250 g/ha, evaluated after 13 days, 100=total damage to plant, 0=no damage to plant
Description: as §1, with “Pre-Emergence” for “Post-Emergence”

[6] = system: Alopecurus myosuroides (ALOMY); assay: Example B pre-emergence herbicidal test, ALOMY; conditions: Alopecurus myosuroides, 312 h, rate 250 g/ha, evaluated after 13 days, 100=total damage to plant, 0=no damage to plant
Description: as §1, with “Pre-Emergence” for “Post-Emergence”

[7] = system: Echinochloa crus-galli (ECHCG); assay: Example B pre-emergence herbicidal test, ECHCG; conditions: Echinochloa crus-galli, 312 h, rate 250 g/ha, evaluated after 13 days, 100=total damage to plant, 0=no damage to plant
Description: as §1, with “Pre-Emergence” for “Post-Emergence”

[8] = system: Avena fatua (AVEFA); assay: Example B pre-emergence herbicidal test, AVEFA; conditions: Avena fatua, 312 h, rate 250 g/ha, evaluated after 13 days, 100=total damage to plant, 0=no damage to plant
Description: as §1, with “Pre-Emergence” for “Post-Emergence”

Row | Structure (SMILES) | pest or weed control at 250 g/ha [1] | pest or weed control at 250 g/ha [2] | pest or weed control at 250 g/ha [3] | pest or weed control at 250 g/ha [4] | pest or weed control at 250 g/ha [5] | pest or weed control at 250 g/ha [6] | pest or weed control at 250 g/ha [7] | pest or weed control at 250 g/ha [8]
1 | Cc1cc(C)c(C2C(=O)CC(CC3C[C@@H]4O[C@H]3[C@@H]3C(=O)NC(=O)[C@@H]34)C2=O)c(C)c1 (relative stereo) [Compound T127] | 20% | 20% | 20% | 10% | – | – | – | –
2 | COC1=C(c2c(C)cc(C)cc2C)C(=O)C(CC2CCOCC2)C1 (stereo not shown) [Compound P4] | 30% | 60% | 20% | 40% | – | – | – | –
3 | Cc1cc(C)c(C2=C(OC(=O)C(C)(C)C)C/C(=C\C3CCSCC3)C2=O)c(C)c1 [Compound P9] | 40% | 30% | 50% | 10% | 40% | 30% | 20% | 0%
4 | Cc1cc(C)c(C2=C(OC(=O)C3CC3)CC(CC3CCOC3)C2=O)c(C)c1 (stereo not shown) [Compound P14] | 100% | 90% | 90% | 90% | 100% | 100% | 100% | 80%
5 | Cc1cc(C)c(C2=C(OC(=O)C3CCCCC3)CC(CC3CCOC3)C2=O)c(C)c1 (stereo not shown) [Compound P15] | 100% | 100% | 100% | 90% | 100% | 100% | 100% | 90%
6 | COc1ccc(C(=O)OC2=C(c3c(C)cc(C)cc3C)C(=O)C(CC3CCOC3)C2)cc1 (stereo not shown) [Compound P18] | 100% | 90% | 90% | 90% | 100% | 100% | 90% | 80%
7 | Cc1cc(C)c(C2=C(OC(=O)OCC(C)C)CC(CC3CCOC3)C2=O)c(C)c1 (stereo not shown) [Compound P23] | 100% | 90% | 90% | 90% | 100% | 100% | 100% | 80%
8 | Cc1cc(C)c(C2=C(OC(=O)OCC(C)(C)C)CC(CC3CCOC3)C2=O)c(C)c1 (stereo not shown) [Compound P24] | 100% | 90% | 90% | 90% | 100% | 100% | 90% | 90%
9 | C=CCOC(=O)OC1=C(c2c(C)cc(C)cc2C)C(=O)C(CC2CCOC2)C1 (stereo not shown) [Compound P25] | 100% | 90% | 100% | 90% | 90% | 100% | 90% | 80%
10 | Cc1cc(C)c(C2=C(OC(=O)Oc3ccccc3)CC(CC3CCOC3)C2=O)c(C)c1 (stereo not shown) [Compound P26] | 100% | 100% | 100% | 90% | 100% | 100% | 90% | 80%
11 | CCS(=O)(=O)OC1=C(c2c(C)cc(C)cc2C)C(=O)C(CC2CCOC2)C1 (stereo not shown) [Compound P27] | 100% | 80% | 90% | 80% | 100% | 100% | 80% | 80%
12 | Cc1cc(C)c(C2=C(OS(=O)(=O)C3CC3)CC(CC3CCOC3)C2=O)c(C)c1 (stereo not shown) [Compound P28] | 100% | 70% | 60% | 70% | 100% | 70% | 20% | 30%
13 | Cc1cc(C)c(C2=C(OC(=O)N3CCCCC3)CC(CC3CCOC3)C2=O)c(C)c1 (stereo not shown) [Compound P29] | 100% | 80% | 30% | 70% | 90% | 50% | 0% | 20%
14 | Cc1cc(C)c(C2=C(OC(=O)c3ccco3)CC(CC3CCN(C(=O)c4ccco4)C3)C2=O)c(C)c1 (stereo not shown) [Compound P62] | 80% | 70% | 70% | 70% | – | – | – | –
15 | COC1=C(c2c(C)cc(C)cc2C)C(=O)C/C1=C\C1CCOCC1 [Compound P69] | 40% | 0% | 80% | 20% | – | – | – | –
16 | Cc1cc(C)c(C2C(=O)CC(C(O)C3CCSCC3)C2=O)c(C)c1 (stereo not shown) [Compound T6] | 10% | 20% | 10% | 0% | – | – | – | –
17 | Cc1cc(C)c(C2C(=O)CC(CC3CCNCC3)C2=O)c(C)c1 (stereo not shown) [Compound T53] | – | – | – | – | 40% | 30% | 0% | 0%
18 | Cc1ccc(S(=O)(=O)N2CCC(CC3CC(=O)C(c4c(C)cc(C)cc4C)C3=O)CC2)cc1 (stereo not shown) [Compound T109] | – | – | – | – | 0% | 0% | 0% | 0%
19 | Cc1cc(C)c(C2C(=O)CC(CC3CCN(C(=O)/C=C/c4ccccc4)CC3)C2=O)c(C)c1 (stereo not shown) [Compound T116] | 90% | 60% | 50% | 90% | – | – | – | –
20 | Cc1cc(-c2ccc(C(F)(F)F)cc2)cc(C)c1C1C(=O)C/C(=C\C2CCOCC2)C1=O (stereo not shown) [Compound T133] | 0% | 20% | 90% | 30% | – | – | – | –
21 | Cc1cc(-c2ccc(C(F)(F)F)cc2)cc(C)c1C1C(=O)CC(CC2CCOCC2)C1=O (stereo not shown) [Compound T136] | 30% | 50% | 60% | 70% | – | – | – | –
22 | CCC1(CC2CCOC2)CC(=O)C(c2c(C)cc(C)cc2C)C1=O (stereo not shown) [Compound T152] | 30% | 20% | 10% | 10% | – | – | – | –
23 | COCC1(CC2CCOC2)CC(=O)C(c2c(C)cc(C)cc2C)C1=O (stereo not shown) [Compound T153] | 20% | 10% | 10% | 20% | – | – | – | –
